# Molecular target: T1, human CRTH2 (Homo sapiens, UniProt Q9Y5Y4)
# T1 construct: expressed in transfected cells
# T1 sequence (Q9Y5Y4 1-395): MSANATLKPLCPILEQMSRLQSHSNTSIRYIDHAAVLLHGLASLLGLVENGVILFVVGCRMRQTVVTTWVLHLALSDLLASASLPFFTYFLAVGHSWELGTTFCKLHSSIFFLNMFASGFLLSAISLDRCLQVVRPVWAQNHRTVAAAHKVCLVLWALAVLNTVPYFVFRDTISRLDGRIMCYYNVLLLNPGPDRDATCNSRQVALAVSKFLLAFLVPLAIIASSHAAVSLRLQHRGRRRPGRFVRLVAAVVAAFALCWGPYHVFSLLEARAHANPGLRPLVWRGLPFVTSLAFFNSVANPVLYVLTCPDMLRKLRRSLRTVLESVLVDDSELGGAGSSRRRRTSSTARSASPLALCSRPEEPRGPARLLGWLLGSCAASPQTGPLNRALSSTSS
# Test: [35S]GTPγS binding assay (SPA) on membranes from CHO-K1 cells stably expressing human CRTH2, stimulated with 60 nM DHK-PGD2
# Format: biochemical
# Details: membranes of CHO-K1 cells expressing human CRTH2; 60 nM DHK-PGD2; Table 1; read-out: CRTH2 hGTPγS IC50
# Protocol: [^35S]GTPγS Binding Assay
# SPA [^35S]G-TPγS binding was performed on membranes from CHO-K1 cells stably expressing human CRTH2. To a white, clear-bottomed 384-well plate, 4 μg membrane protein was incubated in the binding buffer (20 mM HEPES, pH 7.4, 10 mM MgCl2, 300 mM NaCl, 0.2% BSA) with 60 nM DHK-PGD2, 500 pM [^35S]GTPγS, 10 μM GDP, and 100 μg wheat germ agglutinin-coupled SPA beads (GE Healthcare) with and without increasing concentrations of compounds. The final assay volume was 40 μL and contained 1% DMSO. Samples were incubated for 2 h at ambient temperature. Plates were centrifuged 5 min at 1500 rpm. Plates were read after an additional 4 h using the Trilux 1450 Microbeta (PerkinElmer) with a 30 sec/well reading time.
row,IC50 [µM],SMILES
1,0.012,"CN(Cc1ccc(OCC(=O)O)c(-c2cc(F)cc(C#N)c2)c1)S(=O)(=O)c1ccc(F)cc1 [Example 64, 2-(3-cyano-5-fluorophenyl)-4-((4-fluoro-N-methylphenylsulfonamido)methyl)phenoxyacetic acid]"
2,0.043,"CN(Cc1ccc(OCC(=O)O)c(-c2cccc(C#N)c2)c1)S(=O)(=O)c1cc(F)cc(F)c1 [Example 97, 2-(3-cyanophenyl)-4-((3,5-difluoro-N-methylphenylsulfonamido)methyl)phenoxyacetic acid]"

# Same assay, conditions: potency class symbols; Table 2; read-out: CRTH2 hGTPγS IC50
row,IC50 [µM],SMILES
1,< 0.1,"CN(Cc1ccc(OCC(=O)O)c(-c2cc(F)cc(C#N)c2)c1)S(=O)(=O)c1ccc(Cl)s1 [Example 191, 2-(3-cyano-5-fluorophenyl)-4-((2-chloro-N-methylthiophene-5-sulfonamido)methyl)phenoxyacetic acid]"
2,< 0.1,"CN(Cc1ccc(OCC(=O)O)c(-c2cc(F)cc(C#N)c2)c1)S(=O)(=O)c1ccc(F)cc1 [Example 64, 2-(3-cyano-5-fluorophenyl)-4-((4-fluoro-N-methylphenylsulfonamido)methyl)phenoxyacetic acid]"
3,< 0.1,"CN(Cc1ccc(OCC(=O)O)c(-c2cccc(C#N)c2)c1)S(=O)(=O)c1cc(F)cc(F)c1 [Example 97, 2-(3-cyanophenyl)-4-((3,5-difluoro-N-methylphenylsulfonamido)methyl)phenoxyacetic acid]"
4,< 0.1,"CN(Cc1ccc(OCC(=O)O)c(-c2cccc(S(C)(=O)=O)c2)c1)S(=O)(=O)c1cccc(F)c1 [Example 57, 2-(3-methylsulfonylphenyl)-4-((3-fluoro-N-methylphenylsulfonamido)methyl)phenoxyacetic acid]"
5,< 0.1,"CN(Cc1ccc(OCC(=O)O)c(-c2cccc(C#N)c2)c1)S(=O)(=O)c1cccc(Cl)c1 [Example 70, 2-(3-cyanophenyl)-4-((3-chloro-N-methylphenylsulfonamido)methyl)phenoxyacetic acid]"
6,0.1 to 1,"CC(c1ccc(OCC(=O)O)c(-c2cccc(C(F)(F)F)c2)c1)N(C)S(=O)(=O)c1ccc(F)cc1 (stereo not drawn) [Example 22, 2-(2-(3-trifluoromethylphenyl)-4-(1-(4-fluoro-N-methylphenylsulfonamido)ethyl)phenoxy)acetic acid]"
7,< 0.1,"CN(Cc1ccc(OCC(=O)O)c(-c2cccc(C(F)(F)F)c2)c1)S(=O)(=O)c1ccc(F)c(Cl)c1 [Example 74, 2-(3-trifluoromethylphenyl)-4-((3-chloro-4-fluoro-N-methylphenylsulfonamido)methyl)phenoxyacetic acid]"
8,0.1 to 1,"Cc1nnc(-c2cccc(-c3cc(CN(C)S(=O)(=O)c4ccc(F)cc4)ccc3OCC(=O)O)c2)o1 [Example 129, 2-(3-(5-methyl-1,3,4-oxadiazol-2-yl)phenyl)-4-((4-fluoro-N-methylphenylsulfonamido)methyl)phenoxyacetic acid]"
9,0.1 to 1,"CC(C)c1cccc(-c2cc(CN(C)S(=O)(=O)c3ccc(F)cc3)ccc2OCC(=O)O)c1 [Example 117, 2-(3-isopropylphenyl)-4-((4-fluoro-N-methylphenylsulfonamido)methyl)phenoxyacetic acid]"
10,0.1 to 1,"CN(Cc1ccc(OCC(=O)O)c(-c2cccc(O)c2)c1)S(=O)(=O)c1ccc(F)cc1 [Example 132, 2-(3-hydroxyphenyl)-4-((4-fluoro-N-methylphenylsulfonamido)methyl)phenoxyacetic acid]"
11,0.1 to 1,"CN(Cc1cc(F)c(OCC(=O)O)c(-c2cc(F)cc(F)c2)c1)S(=O)(=O)c1ccc(F)cc1 [Example 139, 2-(3,5-difluorophenyl)-4-((4-fluoro-N-methylphenylsulfonamido)methyl)-6-fluorophenoxyacetic acid]"
12,< 0.1,"CN(Cc1ccc(OCC(=O)O)c(-c2cc(Cl)cc(C#N)c2)c1)S(=O)(=O)c1ccc(F)cc1 [Example 207, 2-(3-cyano-5-chloro-phenyl)-4-((4-fluoro-N-methylphenylsulfonamido)methyl)phenoxyacetic acid]"
13,1 to 10,"COc1cccc(S(=O)(=O)N(C)Cc2ccc(OCC(=O)O)c(-c3cccc(C(F)(F)F)c3)c2)c1 [Example 153, 2-(3-trifluoromethylphenyl)-4-((3-methoxy-N-methylphenylsulfonamido)methyl)phenoxyacetic acid]"
14,1 to 10,"C[C@@H](Oc1ccc(CN(C)S(=O)(=O)c2ccc(F)cc2)cc1-c1cccc(C(F)(F)F)c1)C(=O)O [Example 35, (R)-2-(2-(3-trifluoromethylphenyl)-4-((4-fluoro-N-methylphenylsulfonamido)methyl)phenoxy)propanoic acid]"
15,< 0.1,"Cc1cc(S(=O)(=O)N(C)Cc2ccc(OCC(=O)O)c(-c3cc(F)cc(F)c3)c2)ccc1F [Example 82, 2-(3,5-difluorophenyl)-4-((3-methyl-4-fluoro-N-methylphenylsulfonamido)methyl)phenoxyacetic acid]"

# The next lines start with the compound.
row,SMILES,IC50 [µM]
1,"CN(Cc1ccc(OCC(=O)O)c(-c2cncc(S(C)(=O)=O)c2)c1)S(=O)(=O)c1ccc(F)cc1 [Example 75, 2-(3-methylsulfonyl-5-pyridinyl)-4-((4-fluoro-N-methylphenylsulfonamido)methyl)phenoxyacetic acid]",< 0.1
2,"COc1ccc(S(=O)(=O)N(C)Cc2ccc(OCC(=O)O)c(-c3cccc(C#N)c3)c2)cc1 [Example 104, 2-(3-cyanophenyl)-4-((4-methoxy-N-methylphenylsulfonamido)methyl)phenoxyacetic acid]",0.1 to 1
3,"COc1cccc(-c2cc(CN(C)S(=O)(=O)c3ccc(F)cc3)ccc2OCC(=O)O)c1 [Example 133, 2-(3-methoxyphenyl)-4-((4-fluoro-N-methylphenylsulfonamido)methyl)phenoxyacetic acid]",0.1 to 1
4,"CC(C)N(Cc1ccc(OCC(=O)O)c(-c2cccc(C(F)(F)F)c2)c1)S(=O)(=O)c1cc(F)cc(F)c1 [Example 174, 2-(3-trifluoromethylphenyl)-4-((3,5-difluoro-N-isopropylphenylsulfonamido)methyl)phenoxyacetic acid]",1 to 10
5,"CN(Cc1ccc(OCC(=O)O)c(-c2cccnc2)c1)S(=O)(=O)c1ccc(F)cc1 [Example 147, 2-(3-pyridinyl)-4-((4-fluoro-N-methylphenylsulfonamido)methyl)phenoxyacetic acid]",0.1 to 1
6,"CC(C)N(Cc1ccc(OCC(=O)O)c(-c2cccc(C(F)(F)F)c2)c1)S(=O)(=O)c1ccc(F)c(F)c1 [Example 152, 2-(3-trifluoromethylphenyl)-4-((3,4-difluoro-N-isopropylphenylsulfonamido)methyl)phenoxyacetic acid]",1 to 10
7,"CN(Cc1ccc(OCC(=O)O)c(-c2cccc(C(F)(F)F)c2)c1)S(=O)(=O)c1ccc(F)cc1F [Example 107, 2-(3-trifluoromethylphenyl)-4-((2,4-difluoro-N-methylphenylsulfonamido)methyl)phenoxyacetic acid]",0.1 to 1
8,"CN(Cc1ccc(OCC(=O)O)c(-c2cccc(C(F)(F)F)c2)c1)S(=O)(=O)c1ccc2ccccc2c1 [Example 148, 2-(3-trifluoromethylphenyl)-4-((N-methylnaphthalene-2-sulfonamido)methyl)phenoxyacetic acid]",0.1 to 1
9,"CN(Cc1ccc(OCC(=O)O)c(-c2cccc(C#N)c2)c1)S(=O)(=O)c1ccc(Cl)c(F)c1 [Example 65, 2-(3-cyanophenyl)-4-((3-fluoro-4-chloro-N-methylphenylsulfonamido)methyl)phenoxyacetic acid]",< 0.1
10,"CN(Cc1ccc(OCC(=O)O)c(-c2cccc(C(F)(F)F)c2)c1)S(=O)(=O)c1ccccn1 [Example 173, 2-(3-trifluoromethylphenyl)-4-((N-methylpyridine-2-sulfonamido)methyl)phenoxyacetic acid]",1 to 10
11,"CN(C)S(=O)(=O)N(C)Cc1ccc(OCC(=O)O)c(-c2cccc(C(F)(F)F)c2)c1 [Example 182, 2-(3-trifluoromethylphenyl)-4-((N-methyldimethylaminosulfonamido)methyl)phenoxy acetic acid]",1 to 10
12,"CCS(=O)(=O)c1cccc(-c2cc(CN(C)S(=O)(=O)c3ccc(F)c(F)c3)ccc2OCC(=O)O)c1 [Example 58, 2-(3-ethylsulfonylphenyl)-4-((3,4-difluoro-N-methylphenylsulfonamido)methyl)phenoxyacetic acid]",< 0.1
13,"N#Cc1cc(F)cc(-c2cc(CNS(=O)(=O)c3ccc(F)c(Cl)c3)ccc2OCC(=O)O)c1 [Example 193, 2-(3-cyano-5-fluorophenyl)-4-((3-chloro-4-fluorophenylsulfonamido)methyl)phenoxyacetic acid]",< 0.1
14,"CN(Cc1cc(-c2cccc(C#N)c2)c(OCC(=O)O)cc1Cl)S(=O)(=O)c1ccccc1 [Example 73, 2-(3-cyanophenyl)-4-((N-methylphenylsulfonamido)methyl)-5-chlorophenoxyacetic acid]",< 0.1
15,"CN(Cc1ccc(OCC(=O)O)c(-c2cccc(C(F)(F)F)c2)c1)S(=O)(=O)c1cccc2cccnc12 [Example 143, 2-(3-trifluoromethylphenyl)-4-((N-methylquinoline-8-sulfonamido)methyl)phenoxyacetic acid]",0.1 to 1
16,"COc1ccc(-c2cc(CN(C)S(=O)(=O)c3ccc(F)cc3)ccc2OCC(=O)O)cc1 [Example 164, 2-(4-methoxyphenyl)-4-((4-fluoro-N-methylphenylsulfonamido)methyl)phenoxyacetic acid]",1 to 10

# From US8822467B2 (Ligand Pharmaceuticals Inc., priority 2009, dated 2014)
